Experimental data reported in patent US20030091533A1, “Regulation of mononuclear phagocyte stimulation” (priority 2001, published 2003).
Marks after values point to notes of the source that are not given here.

B1: IFN-γ: Interferon gamma, primes mononuclear phagocytes, 200 U/ml (protein, UniProt P01579 24-161, looked up)
Interferon gamma: QDPYVKEAENLKKYFNAGHSDVADNGTLFLGILKNWKEESDRKIMQSQIVSFYFKLFKNFKDDQSIQKSVETIKEDMNVKFFNSNKKKRDDFEKLTNYSVTDLNVQRKAIHELIQVMAELSPAAKTGKRKRSQMLFRG

Key:
Type in all cases: cell-based, human
LPS-stimulated PBM = assay: IL-10 release by ELISA, PBM; conditions: for IL-10 release by LPS-stimulated PBM: preincubated 24 hour, LPS 20 h
Description: FIG. 6 depicts the effect of IL-9, IL-4 and IFN-γ on the release of IL-10 (A) and TGF-β1 (B) by LPS-stimulated PBM and AM cultured under the same conditions as described in FIG. 5 Example I. D. TGF-β1 was determined by ELISA in crude supernatants (untreated supernatants) and in ethanol-acid (acid-treated) supernatants, using a kit from Biosource for determining TGF-β1 release from its latent complexes. An ELISA kit from CLB (Amsterdam, The Netherlands) was used to determine IL-10 following the manufacturer's protocol. […] Data are means±SEM (n=3). *P<0.05 compared with unstimulated cells; **P<0.05 compared with cells preincubated with medium.
(§1) Cells (1×10^6 PBM or 0.5×10^6 AM/well) were distributed in 24-well plates (Falcon), preincubated in cRPMI for 24 hours at 37° C., 5% CO2 with cytokines (IL-9, IL-4 (20 ng/ml) and IFN-γ (200 U/ml)) and stimulated for 20 hours with 1 μg/ml LPS without removing cytokines. Supernatants were harvested and frozen at −20° C. until cytokine titration. Release of TNF-α was quantified by a cytotoxicity bioassay using WEHI 164 cells clone 13, as previously described (Espevik and Nissen-Meyer, J. Immunol. Methods, 95:99-105 (1986) incorporated herein by reference), using rhTNF-α from Boehringer as a standard. IL-8, IL-10 and TGF-β1 concentrations were determined by ELISA. A kit from CLB (Amsterdam, The Netherlands) was used for IL-10 quantitation, following the manufacturer's protocol. A kit from Biosource allowed to determine TGF-β1 after the release from its latent complexes by a treatment of supernatants with ethanol acid (‘acid-treated supernatants’); TGF-P 1 was also assessed in crude supernatants (‘untreated supernatants’). To assay for IL-8, 96-well plates were coated overnight at 4° C. with 4 μg/ml anti-hIL-8 mAb (Sigma, clone 6217.11) in 100 mM sodium carbonate buffer (pH 9.6). […] The reaction was then developed in 0.03% v/v H2O2 substrate and 0.42 mM 3,3′,5,5′-tetramethylbenzidine as chromogen in 100 mM sodium acetate/citric acid buffer (pH 4.9), stopped with 2 M H2SO4, and read in a plate spectrometer at 450 nm. […]

TLR4 = TLR4 surface expression on PBM by FACS; conditions: for TLR4 expression (MFI): PBM preincubated 24 hour, 20 ng/ml IL-9 or IL-4, 200 U/ml IFN-γ, means±SD, medium 73 ± 2; for TLR4 expression on the surface of PBM compared with medium alone: preincubated for 24 hour
Description: Table 2. Cells (0.2×10^6) were preincubated for 24 hour with cytokines (20 ng/ml for IL-9 or IL-4 and 200 U/ml for IFN-γ), before the assessment of LPS receptor expression by immunostaining using anti-human CD14 mAb conjugated to FITC and anti-human TLR4 rabbit Ab followed by mouse anti-rabbit IgG (MAR-FITC). Cell-associated fluorescence was evaluated by FACS and expressed as mean fluorescence intensity (MFI). Autofluorescence of PBM was negligible (MFI: 3±1). Data are means±SD (n=3), and are representative of two experiments. *P<0.05 compared with cells preincubated with medium.
Additional stainings for CD14 and Toll-like receptor (TLR)-4 were performed on PBM preincubated for 24 hour with cytokines, using respectively FITC-conjugated anti-CD14 mAb (clone MøP9, mIgG2b, Becton Dickinson) and anti-TLR4 rabbit Ab (Santa Cruz, Calif.) followed by F (ab′)2 fragments of mouse anti-rabbit IgG (MAR)-FITC.

LPS-stimulated AM = assay: TNF-α release, cytotoxic bioassay with WEHI 164 clone 13 cells, AM; conditions: for TNF-α release by LPS-stimulated AM: preincubated 24 hour with cytokine (IL-9, IL-4 20 ng/ml, IFN-γ 200 U/ml) or medium, LPS 1 μg/ml 20 h, without LPS 4.6±2.1
Description: PBM and AM obtained as described infra (1×10^6 PBM, 0.5×10^6 AM) were preincubated for 24 hour with cytokines, IL-4, IL-9 (20 ng/ml) and IFN-γ (200 U/ml) before the stimulation by LPS (1 μg/ml) for 20 h. Supernatants were harvested and frozen at −20° C. until cytokine titration. TNF-α release was determined in supernatants by a cytotoxic bioassay using WEHI 164 clone 13 target cells (Espevik and Nissen-Meyer, J. Immunol. Methods, 95:99-105 (1986) (incorporated herein by reference)), while IL-8 was quantitated in the same supernatants by ELISA. FIG. 5 depicts the effects of IL-9, IL-4, and IFN-γ on the release of TNFα (A) and IL-8 (B) by LPS-stimulated PBM and AM. Data are means±SEM (n=3). *P<0.001 compared with unstimulated cells; **P<0.05 compared with cells preincubated with medium.
as §1, with “supernatants’).” for “supernatants’). To assay for IL-8, 96-well plates were coated overnight at 4° C. with 4 μg/ml anti-hIL-8 mAb (Sigma, clone 6217.11) in 100 mM sodium carbonate buffer (pH 9.6).”

PMA-stimulated PBM = assay: Extracellular O2- release, SOD-inhibitable reduction of ferricytochrome c; conditions: for effect on the basal oxidative burst: incubation for 24 hour, PBM without stimulation
Description: Extracellular release of O2-derived radicals was evaluated by the SOD-inhibitable reduction of ferricytochrome c, as previously described (Pick, Methods in Enzymology, 132:407-421 (1986)) as described infra.
Extracellular release of O2-derived radicals was evaluated by the SOD-inhibitable reduction of ferricytochrome c, as previously described (Pick, Methods in Enzymology, 132:407-421 (1986)). Briefly, after incubation with IL-9 and IL-4 (20 ng/ml) for 1 hour, 4 hour 24 hour and 96 hour, cells were washed three times in Hank's balanced salt solution without phenol red (HBSS) to remove the phenol red-containing medium and incubated at 37° C. with HBSS containing 160 μM ferricytochrome c (plus 300 IU/ml SOD as control for each condition), and concomittantly with 100 ng/ml PMA when indicated. Optical density (OD) at 550 nm was then recorded in a plate spectrometer (Titertek Multiscan Plus MKII, Labsystems, Finland) after 60 min. The released amount of superoxide anion (O2^−) was deduced from the absorbance values at 550 nm (after subtraction of control values with SOD) using the cytochrome c extinction coefficient of 21×10^3 M^−1 cm^−1 (See Massey, Biochim Biophys Acta, 34: 255(1959)). Results were expressed as nmoles O2^− per 10^6 cells per hour (FIG. 1).

Molecule | IL-10 release by LPS-stimulated PBM (LPS-stimulated PBM) | TLR4 expression (MFI) (TLR4) | TLR4 expression on the surface of PBM compared with medium alone (TLR4) | effect on TNF-α production in LPS-stimulated AM (LPS-stimulated AM; preincubated 24 hour, LPS 20 h) | effect on O2^− release by PMA-stimulated PBM (PMA-stimulated PBM; 24 hour of preincubation) | effect on O2^− release by PMA-stimulated PBM (PMA-stimulated PBM; 96 hour of preincubation) | effect on the basal oxidative burst (PMA-stimulated PBM) | LPS-induced IL-10 release by PBM (LPS-stimulated PBM; preincubated 24 hour 20 ng/ml, LPS 1 μg/ml 20 h, medium-preincubated 217.8±25.8) | TNF-α release by LPS-stimulated AM (LPS-stimulated AM) | O2^− release by PMA-stimulated PBM (PMA-stimulated PBM; preincubation 24 hour, 20 ng/ml, PMA 100 ng/ml, medium-preincubated cells 40.1±2.5) | effect on O2^− release by PMA-stimulated PBM (PMA-stimulated PBM; shorter preincubation periods (1 hour, 4 hour))
IL-4: Th2 cytokine interleukin-4 used as comparator, 20 ng/ml | inhibited | 58 ± 1* MFI | down regulated | No significant inhibition | same inhibitory effect | significantly increased | little effect |  |  |  | 
IL-9: Human IL-9 purified from SF9 insect cell cultures infected with recombinant baculovirus |  | 71 ± 4 MFI | not significantly different |  |  | not further increased | little effect | 119.7 ± 8.7 pg/mL | 74.8 ± 10.2 pg/mL | 23.2±0.8 nmoles 02-per 10^6 cells. h^−1 | not significant
B1 | decreased | 82 ± 2* MFI | increased |  | slightly up regulated |  |  |  | 145.2 ± 9.4 pg/mL |  | 
